Measured values reported in PubChem BioAssay AID256 (DTP/NCI, 2004).
“And” between values parts separate entries of the source, which are not always exact repeats. Equal values may be shown once. Inconclusive results and toxic doses are left out.

Test system: CD2F1 mice, L1210 leukemia ip, survival T/C
Assay: NCI In Vivo Anticancer Drug Screen. Data for tumor model L1210 Leukemia (intraperitoneal) in CD2F1 (CDF1) mice
Conditions: endpoint: mean survival time, higher = longer survival
Method in brief: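 In this screen, transplantable tumors were grown in mice given either the compound or its vehicle. Results were expressed as the treated measurement relative to the control measurement.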

[1] = dose: 6.25 mg/kg/injection, schedule: Q04DX003 (ip), vehicle: distilled water + Tween-80
[2] = dose: 12.5 mg/kg/injection, schedule: Q04DX003 (ip), vehicle: distilled water + Tween-80
[3] = dose: 25.0 mg/kg/injection, schedule: Q04DX003 (ip), vehicle: distilled water + Tween-80
[4] = dose: 50.0 mg/kg/injection, schedule: Q04DX003 (ip), vehicle: distilled water + Tween-80
[5] = dose: 100.0 mg/kg/injection, schedule: Q04DX003 (ip), vehicle: distilled water + Tween-80
[6] = dose: 50.0 mg/kg/injection, schedule: Q01DX009 (ip), vehicle: saline with Tween-80
[7] = dose: 100.0 mg/kg/injection, schedule: Q01DX009 (ip), vehicle: saline with Tween-80
[8] = dose: 200.0 mg/kg/injection, schedule: Q01DX009 (ip), vehicle: saline with Tween-80
[9] = dose: 100.0 mg/kg/injection, schedule: Q04DX003 (ip), vehicle: saline with Tween-80
[10] = dose: 200.0 mg/kg/injection, schedule: Q04DX003 (ip), vehicle: saline with Tween-80
[11] = dose: 400.0 mg/kg/injection, schedule: Q04DX003 (ip), vehicle: saline with Tween-80

## C[NH-].C[NH-].C[NH-].C[NH-].O=C(O)c1cc(C(=O)O)c(C(=O)O)cc1C(=O)O.[Pt+2].[Pt+2]
dose: 3.12 mg/kg/injection, schedule: Q04DX003 (ip), vehicle: distilled water + Tween-80
  T/C: 100 % of control
[1]
  T/C: 102 % of control
[2]
  T/C: 103 % of control
[3]
  T/C: 105 % of control
[4]
  T/C: 102 % of control
[5]
  T/C: 103 % of control
dose: 200.0 mg/kg/injection, schedule: Q04DX003 (ip), vehicle: distilled water + Tween-80
  T/C: 107 % of control

## c1cc(C2CCOCC2)ccn1
[6]
  T/C: 109 % of control
dose: 100.0 mg/kg/injection, schedule: Q04DX003 (ip), vehicle: saline
  T/C: 92 % of control
dose: 200.0 mg/kg/injection, schedule: Q04DX003 (ip), vehicle: saline
  T/C: 90 % of control

## NCCSc1ccccc1
dose: 12.5 mg/kg/injection, schedule: Q01DX009 (ip), vehicle: saline with Tween-80
  T/C: 89 % of control
dose: 25.0 mg/kg/injection, schedule: Q01DX009 (ip), vehicle: saline with Tween-80
  T/C: 89 % of control
[6]
  T/C: 90 % of control and 108 % of control
[7]
  T/C: 87 % of control and 98 % of control

## Cc1cc(C)c(C(=O)c2no[n+]([O-])c2C(=O)c2c(C)cc(C)c(Br)c2C)c(C)c1Br
[7]
  T/C: 97 % of control
[8]
  T/C: 97 % of control
dose: 400.0 mg/kg/injection, schedule: Q01DX009 (ip), vehicle: saline with Tween-80
  T/C: 98 % of control

## O=Cc1c2ccc(Cl)cc2nc2ccc(Cl)cc12
[9]
  T/C: 101 % of control
[10]
  T/C: 98 % of control
[11]
  T/C: 94 % of control

## CCCCCCCCCCCCCCCCCC(=O)OC1C(CO)OC2C1Oc1nc(=N)ccn12 (stereo not given)
dose: 12.5 mg/kg/injection, schedule: Q01DX009 (ip), vehicle: other
  T/C: 167 % of control
dose: 25.0 mg/kg/injection, schedule: Q01DX009 (ip), vehicle: other
  T/C: 229 % of control
dose: 50.0 mg/kg/injection, schedule: Q01DX009 (ip), vehicle: other
  T/C: 301 % of control
dose: 100.0 mg/kg/injection, schedule: Q01DX009 (ip), vehicle: other
  T/C: 280 % of control
dose: 200.0 mg/kg/injection, schedule: Q01DX009 (ip), vehicle: other
  T/C: 96 % of control

## COc1cccc2c1C(=O)c1c(O)c3c(c(O)c1C2=O)C[C@@](O)(C(C)O)C[C@@H]3OC1CC(N)C(O)C(C)O1 (stereo not given in full)
dose: 0.65 mg/kg/injection, schedule: Q01DX009 (ip), vehicle: saline
  T/C: 112 % of control
dose: 1.08 mg/kg/injection, schedule: Q01DX009 (ip), vehicle: saline
  T/C: 113 % of control
dose: 3.0 mg/kg/injection, schedule: Q04DX003 (ip), vehicle: saline
  T/C: 120 % of control
dose: 13.3 mg/kg/injection, schedule: Q01DX009 (ip), vehicle: saline
  T/C: 96 % of control

## CC1(Br)C(C)(Br)C(C)(Br)C(C)(Br)C(C)(Br)C1(C)Br (stereo not given)
dose: 100.0 mg/kg/injection, schedule: Q01DX001 (ip), vehicle: saline with Tween-80
  T/C: 96 % of control
dose: 200.0 mg/kg/injection, schedule: Q01DX001 (ip), vehicle: saline with Tween-80
  T/C: 101 % of control
dose: 400.0 mg/kg/injection, schedule: Q01DX001 (ip), vehicle: saline with Tween-80
  T/C: 101 % of control

## Cn1c2ccccc2c(=O)c2ccc(Cl)cc21
[9]
  T/C: 95 % of control
[10]
  T/C: 96 % of control
[11]
  T/C: 96 % of control

## [Br][Pt+2][Br].[NH-]c1ccccc1F.[NH-]c1ccccc1F
dose: 3.13 mg/kg/injection, schedule: Q04DX003 (ip), vehicle: distilled water + Tween-80
  T/C: 104 % of control
[1]
  T/C: 104 % of control
[2]
  T/C: 108 % of control
[3]
  T/C: 108 % of control
[4]
  T/C: 101 % of control
[5]
  T/C: 93 % of control

## CS(=O)(=O)OCCOS(C)(=O)=O
[7]
  T/C: 109 % of control
[9]
  T/C: 104 % of control
[8]
  T/C: 116 % of control
[10]
  T/C: 115 % of control
[11]
  T/C: 111 % of control

## O=C1c2cccc(O)c2C(=O)c2c(O)cc(CO)cc21
dose: 1.25 mg/kg/injection, schedule: Q01DX009 (ip), vehicle: other
  T/C: 96 % of control
dose: 2.5 mg/kg/injection, schedule: Q01DX009 (ip), vehicle: other
  T/C: 102 % of control
dose: 5.0 mg/kg/injection, schedule: Q01DX009 (ip), vehicle: other
  T/C: 96 % of control
dose: 10.0 mg/kg/injection, schedule: Q01DX009 (ip), vehicle: other
  T/C: 102 % of control
